In PubChem BioAssay (NCI):
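Exposure lasted 48 hours, with cells grown in 96-well plates and compounds tested at five concentrations. TGI: total growth inhibition.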

Tests used:
Experiment in all cases: NCI tumour cell line growth inhibition, 48 h
[1] = test system: MALME-3M melanoma
[2] = test system: HOP-62 NSCLC
[3] = test system: NCI-H522 lung
[4] = test system: SK-MEL-2 melanoma
[5] = test system: BT-549 breast
[6] = test system: ACHN renal
[7] = test system: M14 melanoma
[8] = test system: OVCAR-5 ovarian
[9] = test system: HOP-92 NSCLC
[10] = test system: LOX IMVI melanoma
[11] = test system: OVCAR-8 ovarian
[12] = test system: HL-60(TB) leukemia
[13] = test system: 786-0 renal
[14] = test system: MOLT-4 leukemia
[15] = test system: MCF7 breast
[16] = test system: DU-145 prostate
[17] = test system: SF-539 CNS
[18] = test system: RPMI-8226 leukemia
[19] = test system: U251 CNS
[20] = test system: OVCAR-4 ovarian
[21] = test system: SR leukemia
[22] = test system: SK-MEL-28 melanoma
[23] = test system: IGROV1 ovarian
[24] = test system: MDA-N
[25] = test system: SK-MEL-5 melanoma
[26] = test system: NCI-H23 lung
[27] = test system: SNB-19 CNS
[28] = test system: MDA-MB-435
[29] = test system: HT29 colon
[30] = test system: UACC-62 melanoma
[31] = test system: SF-295 CNS
[32] = test system: SW-620 colon
[33] = test system: UO-31 renal
[34] = test system: T-47D breast
[35] = test system: SK-OV-3 ovarian
[36] = test system: HCT-116 colon
[37] = test system: SF-268 CNS
[38] = test system: HCT-15 colon
[39] = test system: NCI-H226 lung
[40] = test system: OVCAR-3 ovarian
[41] = test system: MDA-MB-231 breast
[42] = test system: HS 578T breast
[43] = test system: SN12C renal
[44] = test system: K-562 leukemia
[45] = test system: COLO 205 colon
[46] = test system: CCRF-CEM leukemia
[47] = test system: NCI/ADR-RES ovarian
[48] = test system: KM12 colon
[49] = test system: EKVX NSCLC
[50] = test system: CAKI-1 renal
[51] = test system: RXF 393 renal
[52] = test system: PC-3 prostate
[53] = test system: A549 NSCLC
[54] = test system: A498 renal
[55] = test system: UACC-257 melanoma
[56] = test system: TK-10 renal
[57] = test system: SNB-75 CNS

In the case of `NCCNS(=O)(=O)c1ccc(N)cc1`, the TGI [1] is reported as greater than 100 µM, the TGI [2] is reported as greater than 100 µM and the TGI [3] is reported as greater than 100 µM. For the same compound, the TGI [4] was greater than 100 µM, the TGI [5] was greater than 100 µM and the TGI [6] was greater than 100 µM. It also gave a TGI [7] greater than 100 µM, a TGI [8] greater than 100 µM and a TGI [9] greater than 100 µM. It also gave a TGI [10] greater than 100 µM, a TGI [11] greater than 100 µM and a TGI [12] of 41.5 µM. The TGI [13] was greater than 100 µM, the TGI [14] was greater than 100 µM and the TGI [15] was greater than 100 µM. It also gave a TGI [16] greater than 100 µM, a TGI [17] greater than 100 µM and a TGI [18] greater than 100 µM. For the same compound, the TGI [19] was greater than 100 µM, the TGI [20] was greater than 100 µM and the TGI [21] was greater than 100 µM. The TGI [22] was greater than 100 µM, the TGI [23] was greater than 100 µM and the TGI [24] was greater than 100 µM. It also gave a TGI [25] greater than 100 µM, a TGI [26] greater than 100 µM and a TGI [27] greater than 100 µM. It also gave a TGI [28] greater than 100 µM, a TGI [29] greater than 100 µM and a TGI [30] greater than 100 µM. The TGI [31] was greater than 100 µM, the TGI [32] was greater than 100 µM and the TGI [33] was greater than 100 µM. The TGI [34] was greater than 100 µM, the TGI [35] was greater than 100 µM and the TGI [36] was greater than 100 µM. It also gave a TGI [37] greater than 100 µM, a TGI [38] greater than 100 µM and a TGI [39] greater than 100 µM. For the same compound, the TGI [40] was greater than 100 µM, the TGI [41] was greater than 100 µM and the TGI [42] was greater than 100 µM. For the same compound, the TGI [43] was greater than 100 µM, the TGI [44] was greater than 100 µM and the TGI [45] was greater than 100 µM. It also gave a TGI [46] greater than 100 µM, a TGI [47] greater than 100 µM and a TGI [48] greater than 100 µM. The TGI [49] was greater than 100 µM, the TGI [50] was greater than 100 µM and the TGI [51] was greater than 100 µM. For the same compound, the TGI [52] was greater than 100 µM, the TGI [53] was greater than 100 µM and the TGI [54] was greater than 100 µM. It also gave a TGI [55] greater than 100 µM, a TGI [56] greater than 100 µM and a TGI [57] greater than 100 µM.
